Experimental data as given in patent US20240101570A1 (AMGEN INC., priority 2020, published 2024).

Experiments:
HCT116 WT cells = assay: HCT116 WT cell proliferation / viability (CellTiter-Glo, 6 days); format: cell-based; conditions: Homo sapiens, HCT-116, 144 h, HCT116 WT cells, 6 days, CellTiter-Glo; read-out: HCT-116 WT IC50
Outline: (§1)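 Viability read by CellTiter-Glo after 6-day compound exposure of MTAP-null and wild-type HCT116 cells grown in RPMI 1640 with 10% FBS. Dosing used 1:3 steps from 1 or 10 μM (8-9 points) or 1:2 steps from 10 or 50 μM (22 points); IC50 taken where fitted curve crosses 50% of control.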

HCT116 MTAP null cells = assay: HCT116 MTAP null cell proliferation / viability (CellTiter-Glo, 6 days); format: cell-based; conditions: HCT116-MTAP null, 144 h, HCT116 MTAP null cells, 6 days, CellTiter-Glo; read-out: HCT-116 MTAP null IC50
Outline: as §1

| SMILES | IC50 (HCT116 WT cells) | IC50 (HCT116 MTAP null cells) |
| --- | --- | --- |
| C[C@@H](c1ccc(C(F)(F)F)nn1)N(C(=O)c1cc2c(cc1F)nc(N)c1cnn(C)c12)C1CC1 (single isomer, unassigned) [Example 877] | 44100 nM | 756 nM |
| C[C@H](c1ccc(C(F)(F)F)nn1)N(C)C(=O)c1cc2c(cc1C(F)(F)F)nc(N)c1cnn(C)c12 (single isomer, unassigned) [Example 879] | 12300 nM | 181 nM |
| COC[C@@H](C)N(Cc1ccc(Cl)nn1)C(=O)c1ccc2nc(N)c3c(c2c1)COC3 [Example 305, 4-amino-N-((6-chloro-3-pyridazinyl)methyl)-N-((2R)-1-methoxy-2-propanyl)-1,3-dihydrofuro[3,4-c]quinoline-8-carboxamide] | 861 nM | 27 nM |
| COC[C@@H](C)N(Cc1ccc(Cl)nn1)C(=O)c1cc2c3c(c(N)nc2cn1)COC3 [Example 306, 4-amino-N-((6-chloro-3-pyridazinyl)methyl)-N-((2R)-1-methoxy-2-propanyl)-1,3-dihydrofuro[3,4-c][1,7]naphthyridine-8-carboxamide] | 7990 nM | 217 nM |
| COC[C@@H](C)N(Cc1ccc(Cl)nn1)C(=O)c1ccc2nc(N)c3c(c2c1)CO[C@@H]3C [Example 307, (3R)-4-amino-N-((6-chloro-3-pyridazinyl)methyl)-N-((2R)-1-methoxy-2-propanyl)-3-methyl-1,3-dihydrofuro[3,4-c]quinoline-8-carboxamide] | 471 nM | 18 nM |
| CC(C)N(Cc1ccc(C(F)(F)F)cn1)C(=O)c1cc2c3c(c(N)nc2cn1)[C@@H](C)OC3 [Example 310, (3R)-4-amino-3-methyl-N-(2-propanyl)-N-((5-(trifluoromethyl)-2-pyridinyl)methyl)-1,3-dihydrofuro[3,4-c][1,7]naphthyridine-8-carboxamide] | 4050 nM | 71 nM |
| C[C@H]1OCc2c1c(N)nc1cnc(C(=O)N(Cc3ccc(C(F)(F)F)cn3)C34CC(C3)C4)cc21 [Example 311, (3R)-4-amino-N-(bicyclo[1.1.1]pentan-1-yl)-3-methyl-N-((5-(trifluoromethyl)-2-pyridinyl)methyl)-1,3-dihydrofuro[3,4-c][1,7]naphthyridine-8-carboxamide] | 2200 nM | 56 nM |
| CC(C)N(Cc1ccc(C(F)(F)F)nn1)C(=O)c1cc2c3c(c(N)nc2cn1)[C@@H](C)OC3 [Example 313, (3R)-4-amino-3-methyl-N-(2-propanyl)-N-((6-(trifluoromethyl)-3-pyridazinyl)methyl)-1,3-dihydrofuro [3,4-c][1,7]naphthyridine-8-carboxamide] | 3680 nM | 200 nM |
| C[C@H]1OCc2c1c(N)nc1cnc(C(=O)N(Cc3ccc(C(F)(F)F)cn3)C3CC3)cc21 [Example 315, (3R)-4-amino-N-cyclopropyl-3-methyl-N-((5-(trifluoromethyl)-2-pyridinyl)methyl)-1,3-dihydrofuro[3,4-c][1,7]naphthyridine-8-carboxamide] | 11100 nM | 137 nM |
| C[C@H]1OCc2c1c(N)nc1cnc(C(=O)N(Cc3ccc(C#N)cn3)C3CC3)cc21 [Example 316, (3R)-4-amino-N-((5-cyano-2-pyridinyl)methyl)-N-cyclopropyl-3-methyl-1,3-dihydrofuro[3,4-c][1,7]naphthyridine-8-carboxamide] | 23600 nM | 570 nM |
| C[C@H]1OCc2c1c(N)nc1cnc(C(=O)N(C)Cc3ccc(C(F)(F)F)nn3)cc21 [Example 317, (3R)-4-amino-N,3-dimethyl-N-((6-(trifluoromethyl)-3-pyridazinyl)methyl)-1,3-dihydrofuro [3,4-c][1,7]naphthyridine-8-carboxamide] | 49700 nM | 432 nM |
| C[C@@H]1OCc2c1c(N)nc1cnc(C(=O)N(C)Cc3ccc(C(F)(F)F)nn3)cc21 [Example 319, (3S)-4-amino-N,3-dimethyl-N-((6-(trifluoromethyl)-3-pyridazinyl)methyl)-1,3-dihydrofuro[3,4-c][1,7]naphthyridine-8-carboxamide] | > 50000 nM | 27700 nM |
| Nc1nc2ncc(C(=O)N(Cc3ccc(C(F)(F)F)cn3)CC3CC3)cc2c2c1COC2 [Example 321, 4-amino-N-(cyclopropylmethyl)-N-((5-(trifluoromethyl)-2-pyridinyl)methyl)-1,3-dihydrofuro[3,4-c][1,8]naphthyridine-8-carboxamide] | 3790 nM | 226 nM |
| COC[C@@H](C)N(Cc1ccc(C(F)(F)F)cn1)C(=O)c1cnc2nc(N)c3c(c2c1)COC3 [Example 322, 4-amino-N-((2R)-1-methoxy-2-propanyl)-N-((5-(trifluoromethyl)-2-pyridinyl)methyl)-1,3-dihydrofuro[3,4-c][1,8]naphthyridine-8-carboxamide] | 1030 nM | 81 nM |
| C[C@H]1OCc2c1c(N)nc1ccc(C(=O)N(Cc3ccc(Br)nn3)CC3CC3)cc21 [Example 326, (3R)-4-amino-N-((6-bromo-3-pyridazinyl)methyl)-N-(cyclopropylmethyl)-3-methyl-1,3-dihydrofuro[3,4-c]quinoline-8-carboxamide] | 1280 nM | 19 nM |

Now from value to molecule:

| IC50 (HCT116 WT cells) | IC50 (HCT116 MTAP null cells) | SMILES |
| --- | --- | --- |
| 709 nM | 10 nM | C[C@H](c1ccc(C(F)(F)F)nn1)N(C(=O)c1cc2c(cc1F)nc(N)c1cnn(C)c12)C1CC1 (single isomer, unassigned) [Example 878] |
| 8310 nM | 137 nM | C[C@@H](c1ccc(C(F)(F)F)nn1)N(C(=O)c1cc2c(cc1Cl)nc(N)c1cnn(C)c12)C1CC1 (single isomer, unassigned) [Example 880] |
| 370 nM | 7 nM | C[C@H](c1ccc(C(F)(F)F)nn1)N(C(=O)c1cc2c(cc1Cl)nc(N)c1cnn(C)c12)C1CC1 (single isomer, unassigned) [Example 881] |
| 1340 nM | 41 nM | Nc1nc2ccc(C(=O)N(Cc3ccc(C(F)(F)F)cn3)CC3CC3)cc2c2c1COC2 [Example 300, 4-amino-N-(cyclopropylmethyl)-N-[[5-(trifluoromethyl)-2-pyridyl]methyl]-1,3-dihydrofuro[3,4-c]quinoline-8-carboxamide] |
| 11000 nM | 259 nM | CC(C)N(Cc1ccc(C#N)cn1)C(=O)c1ccc2nc(N)c3c(c2c1)COC3 [Example 301, 4-amino-N-((5-cyano-2-pyridinyl)methyl)-N-(2-propanyl)-1,3-dihydrofuro[3,4-c]quinoline-8-carboxamide] |
| 17300 nM | 900 nM | CC(C)N(Cc1ccc(C2CC2)nc1)C(=O)c1ccc2nc(N)c3c(c2c1)COC3 [Example 302, 4-amino-N-((6-cyclopropyl-3-pyridinyl)methyl)-N-(2-propanyl)-1,3-dihydrofuro[3,4-c]quinoline-8-carboxamide] |
| 5100 nM | 124 nM | COC[C@@H](C)N(Cc1ccc(Cl)nn1)C(=O)c1cc2c3c(c(N)nc2cn1)[C@@H](C)OC3 [Example 308, (3R)-4-amino-N-((6-chloro-3-pyridazinyl)methyl)-N-((2R)-1-methoxy-2-propanyl)-3-methyl-1,3-dihydrofuro[3,4-c][1,7]naphthyridine-8-carboxamide] |
| > 10000 nM | 4000 nM | C[C@@H]1OCc2c1c(N)nc1cnc(C(=O)N(Cc3ccc(C(F)(F)F)cn3)C34CC(C3)C4)cc21 [Example 309, (3S)-4-amino-N-(bicyclo[1.1.1]pentan-1-yl)-3-methyl-N-((5-(trifluoromethyl)-2-pyridinyl)methyl)-1,3-dihydrofuro[3,4-c][1,7]naphthyridine-8-carboxamide] |
| > 10000 nM | 1090 nM | C[C@H]1OCc2c1c(N)nc1cnc(C(=O)N(C)Cc3ccc(C#N)cn3)cc21 [Example 312, (3R)-4-amino-N-((5-cyano-2-pyridinyl)methyl)-N,3-dimethyl-1,3-dihydrofuro[3,4-c][1,7]naphthyridine-8-carboxamide] |
| 36300 nM | 4930 nM | C[C@@H]1OCc2c1c(N)nc1cnc(C(=O)N(Cc3ccc(C(F)(F)F)cn3)C3CC3)cc21 [Example 318, (3S)-4-amino-N-cyclopropyl-3-methyl-N-((5-(trifluoromethyl)-2-pyridinyl)methyl)-1,3-dihydrofuro[3,4-c][1,7]naphthyridine-8-carboxamide] |
| 15800 nM | 303 nM | C[C@H]1OCc2c1c(N)nc1cnc(C(=O)N(Cc3ccc(C(F)(F)F)cn3)CC(F)(F)F)cc21 [Example 320, (3R)-4-amino-3-methyl-N-(2,2,2-trifluoroethyl)-N-((5-(trifluoromethyl)-2-pyridinyl)methyl)-1,3-dihydrofuro [3,4-c][1,7]naphthyridine-8-carboxamide] |
| 15000 nM | 358 nM | CN(Cc1ccc(C2CC2)cn1)C(=O)c1ccc2nc(N)c3c(c2c1)COC3 [Example 323, 4-amino-N-((5-cyclopropyl-2-pyridinyl)methyl)-N-methyl-1,3-dihydrofuro[3,4-c]quinoline-8-carboxamide] |
| 51600 nM | 908 nM | CN(Cc1ccc(C#N)cn1)C(=O)c1ccc2nc(N)c3c(c2c1)COC3 [Example 324, 4-amino-N-((5-cyano-2-pyridinyl)methyl)-N-methyl-1,3-dihydrofuro[3,4-c]quinoline-8-carboxamide] |
| 2280 nM | 73 nM | N#Cc1ccc(CN(CC2CC2)C(=O)c2ccc3nc(N)c4c(c3c2)COC4)nc1 [Example 325, 4-amino-N-((5-cyano-2-pyridinyl)methyl)-N-(cyclopropylmethyl)-1,3-dihydrofuro[3,4-c]quinoline-8-carboxamide] |
| > 10000 nM | 811 nM | CN(Cc1ccc(Br)nn1)C(=O)c1ccc2nc(N)c3c(c2c1)COC3 [Example 327, 4-amino-N-((6-bromo-3-pyridazinyl)methyl)-N-methyl-1,3-dihydrofuro[3,4-c]quinoline-8-carboxamide] |
